Assay results: patent US20020022266A1, “Localized delivery to a target surface” (priority 2000, published 2002)

Assays:
[1] = system: Bovine carotid arteries
From the text: (§1) Bovine carotid and rabbit femoral arteries were harvested and placed into a container with DMEM. The arteries were then transferred to a petri dish with DPBS, and excess fat was removed from the vessel exterior with the aid of a scalpel and forceps. The vessel was then filleted with a pair of surgical scissors to expose the luminal surface. The lumen of the bovine vessel was scrape damaged with a spatula to simulate the damage that would occur during a vascular procedure in which plaque is scrapped off. The vessel was utilized without further preparation. The vessels were loaded into a tubular perfusion chamber. The wash medium used was DMEM with a 4.5 g/dl of bovine serum albumin [BSA] (Sigma). A syringe pump (Harvard Apparatus) was used to provide flow and mimic the arterial shear conditions that would be experienced in vivo. Initially, the vessel was perfused for five minutes with the wash medium. At this point, 1 mL of a 10 mM NHS-PEG-Biotin solution was injected into the chamber and incubated with the vessel for modification for one minute. Again, the wash medium was perfused for five minutes. Next, a 10 mL solution of NeutrAvidin-coated microspheres (Molecular Probes) at a concentration of 7.28×10^6 particles/mL was perfused over the modified surface for 2 minutes. The vessel was washed for five minutes one additional time and then removed from the chamber. Finally, the vessel was analyzed by counting the number of microspheres bound per mm^2 of tissue using epi-fluorescence microscopy. This same protocol was repeated for the control, with the vessel being incubated with DPBS alone and not the NHS-PEG-Biotin as described previously.

[2] = system: rabbit femoral arteries; details: 10 mM, one minute modification, two-minute perfusion, versus control, FIG. 3
From the text: as §1

For NHS-PEG-Biotin, the “number of microspheres bound per mm^2 of tissue” value ([1]; bovine arteries, 10 mM, one minute modification, two-minute perfusion, versus control, FIG. 2) was “far greater than the control vessels”, the “binding of the microspheres to the modified versus unmodified surfaces (fluorescent micrographs)” value ([1]; carotid artery segments, 10 mM NHS-PEG-Biotin, one minute, FIGS. 1A and 1B) was “microspheres have attached” and the “number of microspheres bound per mm^2 of tissue” value [2] was “far greater than the control vessels”.
